The target in the assay is T1, human KSP motor domain (KSP(367H)) (Homo sapiens, UniProt P52732).
T1 construct: were used to amplify the motor domain and the neck linker region; made in house; host or cells: E. coli BL21 (DE3), pRSETa
T1 sequence (P52732 18-359 limits assumed): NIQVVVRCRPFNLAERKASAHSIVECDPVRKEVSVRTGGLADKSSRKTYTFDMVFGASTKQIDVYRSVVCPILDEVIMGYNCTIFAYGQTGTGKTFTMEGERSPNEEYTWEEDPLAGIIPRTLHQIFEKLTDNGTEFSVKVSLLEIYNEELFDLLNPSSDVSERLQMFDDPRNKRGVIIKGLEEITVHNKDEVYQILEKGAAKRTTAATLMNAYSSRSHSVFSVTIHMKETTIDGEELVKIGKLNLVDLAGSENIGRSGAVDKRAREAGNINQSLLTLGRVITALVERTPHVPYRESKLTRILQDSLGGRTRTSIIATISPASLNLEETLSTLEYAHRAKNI
The assay is described as follows: Kinesin ATPase In Vitro Assay. It counts as biochemical. The conditions noted are these: kinesin motor domain with microtubules, 1 mM ATP, 23° C. An excerpt:
I. Kinesin ATPase In Vitro Assay
Cloning and Expression of Human Poly-Histidine Tagged KSP Motor Domain (KSP(367H))
Plasmids for the expression of the human KSP motor domain construct were cloned by PCR using a pBluescript full length human KSP construct (Blangy et al., Cell, vol. 83, pp 1159-1169, 1995) as a template. The N-terminal primer 5′-[…] (SEQ. ID. NO.: 1) and the C-terminal primer 5′-[…] […] (SEQ. ID. NO.: 2) were used to amplify the motor domain and the neck linker region. The PCR products were digested with AseI and XhoI, ligated into the NdeI/XhoI digestion product of pRSETa (Invitrogen) and transformed into E. coli BL21 (DE3).
Cells were grown at 37° C. to an OD600 of 0.5. […]
The kinesin motor domain is incubated with microtubules, 1 mM ATP (1:1 MgCl2: Na-ATP), and compound at 23° C. in buffer containing 80 mM K-HEPES (pH 7.0), 1 mM EGTA, 1 mM DTT, 1 mM MgCl2, and 50 mM KCl. […] Free phosphate from the ATP hydrolysis reaction is measured via a quinaldine red/ammonium molybdate assay by adding a […] of quench C (e.g., to a mixture of 40 μl reaction volume+40 μl stop buffer is then added 120 μl quench C). […] Quench C is a 2:1 ratio of quench A:quench B The reaction is incubated for 5-10 minutes at 23° C., and the absorbance of the phospho-molybdate complex is measured at 540 nm.

pIC50: −log10 of the molar value.

By pIC50 is commonly meant the IC50 on a negative log10 scale, so that one unit is a factor of ten. Low values mean a high IC50, high ones a low IC50. `CC(=O)N1N=C(c2cc(F)ccc2F)C[C@@]1(CC[C@@H](N)CF)c1ccccc1` [Compound 2-7, [(1R)-3-[(5S)-1-Acetyl-3-(2,5-difluorophenyl)-5-phenyl-4,5′-dihydro-1H-pyrazol-5-yl]-1-(fluoromethyl)propyl]amine] gave a pIC50 of no less than 4.30. `CC(=O)N1N=C(c2cc(F)ccc2F)C[C@@]1(CC[C@H](N)CF)c1ccccc1` [Compound 2-8, [(1S)-3-[(5S)-1-Acetyl-3-(2,5-difluorophenyl)-5-phenyl-4,5-dihydro-1H-pyrazol-5-yl]-1-(fluoromethyl)propyl]amine] showed a pIC50 of no less than 4.30.

The record behind these values is patent US7629373B2, “Mitotic kinesin inhibitors” (Merck & Co. Inc., priority 2005, dated 2009).
